Results taken from PubChem BioAssay AID1963842 (Molecular Pharmacology Branch, DTP, NCI, 2024).

Tested on: 677734-321-R-J1-PDC complex spheroid viability
Assay: Anticancer human tumor 677734-321-R-J1-PDC patient-derived soft tissue sarcoma cell line growth inhibition [POLQ]
Details: for IC50: curve of first compound; for viability, T/C: stronger effect = lower value
Method: Multicellular complex tumor spheroid response to Polymerase (POL) inhibitors (novobiocin, ART-558, RP6685) in combination with a variety of drugs and investigational agents in selected tumor cell lines
The POL inhibitors (novobiocin, ART-558, and RP6685) were evaluated both individually and in combination with standard of care and investigational anticancer small molecules within a complex spheroid model of solid tumors. . Complex spheroids include a stromal component modeled by human endothelial cells (HUVEC) and fibroblasts modeled by human mesenchymal stem cells (MSCs). The concentration ranges selected for each drug and investigational agent were based upon clinically achievable concentrations if the clinical Cmax of the agent was known.
Compounds. The drugs and investigational agents: novobiocin (NSC847541), ART-558 (NSC835418), RP-6685 (NSC848927), peposertib (NSC802822), ceralasertib (NSC780249), elimusertib (NSC800525), camonsertib (NSC841442), AZD-1390 (NSC803789), olaparib (NSC753686), talazoparib (NSC767125), rucaparib (NSC756644), sotorasib (NSC818433), MRTX-1133 (NSC836407), SN-38 (NSC673596), topotecan (NSC609699), epotoside (NSC141540), doxorubicin (NSC123127), gemcitabine (NSC613327), 5-fluorouracil (NSC19893), paclitaxel (NSC125973), vemurafenib (NSC761431), MSA-2 (NSC828583), SN-011 (NSC837082), adavosertib (NSC754352), prexasertib (NSC758257), carboplatin (NSC241240) and oxaliplatin (NSC266046), were obtained from the National Cancer Institute (NCI) Developmental Therapeutics Program Chemical Repository (21). The FDA-approved anticancer drug set is available from the Developmental Therapeutics Program at https://dtp.cancer.gov/organization/dscb/obtaining/. […] The stock solutions were prepared in dimethyl sulfoxide (DMSO, Sigma-Aldrich, St. Louis, MO, cat. D2650), except for the platinum compounds which were prepared in saline (Quality Biological, Gaithersburg, MD, cat. 114-055-101), at 800-fold the tested concentration and stored at -70 degrees C prior to their use. All drugs and investigational agents were tested over a range starting from a high concentration at or near the clinical Cmax and decreasing in half-log increments. If the clinical Cmax for an agent had not been determined, the highest concentration tested was 10 microM, except for SN-38, which was tested at a high concentration of 1 microM.
Cell Culture. All cells were maintained in an incubator at 37 degrees C and 5% CO2 with 95% humidity. The PDC lines were cultured according to standard operating procedures established by the NCI PDMR (https://pdmr.cancer.gov). Table 3 of the manuscript, lists the cell lines along with the number of the three cell types plated to form the mct-spheroids and media for tumor cell growth. After thawing, all PDC lines, except 997537-175-T-J1-PDC and 415267-285-R-J2-PDC, were cultured in Matrigel-coated flasks prepared with a working solution of 1X Ham's F-12 nutrient mix, without supplementation (Thermo Fisher Scientific, cat. 11765054), 100 U/mL penicillin-streptomycin (Thermo Fisher Scientific, cat. 15140122), and 2.5% Matrigel (Corning Inc., Corning, NY, cat. 354248) for the first three passages. The two PDC lines 997537-175-T-J1-PDC and 415267-285-R-J2-PDC were cultured on uncoated flasks. The 857933-349-R-J2-PDC line was cultured in 6C/Colon 1B media containing advanced DMEM/F-12 (Thermo Fisher Scientific, cat. 12634028), 10 mM HEPES (Thermo Fisher Scientific, cat. 15630080), 1X GlutaMAX supplement (Thermo Fisher Scientific, cat. 35050061), 0.1 mg/mL primocin (InvivoGen, San Diego, CA, cat. ant-pm-2), 10% defined fetal bovine serum, heat inactivated (HyClone Laboratories Inc., Logan, UT, cat. SH30070.03HI), 50% L-WRN conditioned media (ATCC, cat. CRL-3276), 1.25 mM N-Acetyl-L-cysteine (Sigma-Aldrich, cat. A9165), 10 mM nicotinamide (Sigma-Aldrich, cat. N0636), 1X B-27 supplement (Thermo Fisher Scientific, cat. 17504044), 1X N-2 supplement (Thermo Fisher Scientific, cat. […]

[1] = second compound 0.0316 µM, first compound 0.0316 µM
[2] = second compound 0.0316 µM, first compound 0.1 µM
[3] = second compound 0.0316 µM, first compound 0.316 µM
[4] = second compound 0.0316 µM, first compound 1 µM
[5] = second compound 0.0316 µM, first compound 3.16 µM
[6] = second compound 0.0316 µM, first compound 10 µM
[7] = second compound 0.1 µM, first compound 0.0316 µM
[8] = second compound 0.1 µM, first compound 0.1 µM
[9] = second compound 0.1 µM, first compound 0.316 µM
[10] = second compound 0.1 µM, first compound 1 µM
[11] = second compound 0.1 µM, first compound 3.16 µM
[12] = second compound 0.1 µM, first compound 10 µM
[13] = second compound 0.316 µM, first compound 0.0316 µM
[14] = second compound 0.316 µM, first compound 0.1 µM
[15] = second compound 0.316 µM, first compound 0.316 µM
[16] = second compound 0.316 µM, first compound 1 µM
[17] = second compound 0.316 µM, first compound 3.16 µM
[18] = second compound 0.316 µM, first compound 10 µM
[19] = second compound 1 µM, first compound 0.0316 µM
[20] = second compound 1 µM, first compound 0.1 µM
[21] = second compound 1 µM, first compound 0.316 µM
[22] = second compound 1 µM, first compound 1 µM
[23] = second compound 1 µM, first compound 3.16 µM
[24] = second compound 1 µM, first compound 10 µM
[25] = second compound 3.16 µM, first compound 0.0316 µM
[26] = second compound 3.16 µM, first compound 0.1 µM
[27] = second compound 3.16 µM, first compound 0.316 µM
[28] = second compound 3.16 µM, first compound 1 µM
[29] = second compound 3.16 µM, first compound 3.16 µM
[30] = second compound 3.16 µM, first compound 10 µM
[31] = second compound 10 µM, first compound 0.0316 µM
[32] = second compound 10 µM, first compound 0.1 µM
[33] = second compound 10 µM, first compound 0.316 µM
[34] = second compound 10 µM, first compound 1 µM
[35] = second compound 10 µM, first compound 3.16 µM
[36] = second compound 10 µM, first compound 10 µM
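Also: spheroids exposed to compounds for one week.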
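For viability, T/C in this document: 100% = vehicle DMSO treated spheroids.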

## CC1COCCN1c1cc(-c2ccnn2C)c2ccnc(-c3ccn[nH]3)c2n1 (centres undefined) + Cc1cccc(N(C)C(=O)C2C(O)CCN2c2nc(C)cc(C(F)(F)F)c2C#N)c1
Second compound 0.0316 µM
  IC50: 161 nM
Second compound 0.1 µM
  IC50: 175 nM
Second compound 0.316 µM
  IC50: 153 nM
Second compound 1 µM
  IC50: 156 nM
Second compound 3.16 µM
  IC50: 125 nM
Second compound 10 µM
  IC50: 110 nM
[1]
  viability, T/C: 100%
[2]
  viability, T/C: 67.6%
[3]
  viability, T/C: 24.8%
[4]
  viability, T/C: 21.6%
[5]
  viability, T/C: 18.2%
[6]
  viability, T/C: 14.3%
[7]
  viability, T/C: 88.9%
[8]
  viability, T/C: 70.9%
[9]
  viability, T/C: 27.8%
[10]
  viability, T/C: 17.1%
[11]
  viability, T/C: 17.4%
[12]
  viability, T/C: 16.6%
[13]
  viability, T/C: 98.1%
[14]
  viability, T/C: 64.9%
[15]
  viability, T/C: 24.2%
[16]
  viability, T/C: 19.6%
[17]
  viability, T/C: 20.3%
[18]
  viability, T/C: 16.3%
[19]
  viability, T/C: 99.9%
[20]
  viability, T/C: 65.5%
[21]
  viability, T/C: 25.4%
[22]
  viability, T/C: 18.7%
[23]
  viability, T/C: 18.9%
[24]
  viability, T/C: 15.8%
[25]
  viability, T/C: 90.7%
[26]
  viability, T/C: 56%
[27]
  viability, T/C: 25.2%
[28]
  viability, T/C: 19.1%
[29]
  viability, T/C: 16.5%
[30]
  viability, T/C: 18.6%
[31]
  viability, T/C: 89.7%
[32]
  viability, T/C: 52.5%
[33]
  viability, T/C: 21.7%
[34]
  viability, T/C: 17.2%
[35]
  viability, T/C: 18.4%
[36]
  viability, T/C: 16%

## Nc1ccn(C2OC(CO)C(O)C2(F)F)c(=O)n1 (centres undefined) + Cc1cccc(N(C)C(=O)C2C(O)CCN2c2nc(C)cc(C(F)(F)F)c2C#N)c1
Second compound 0.0316 µM
  IC50: < 31.6 nM
Second compound 0.1 µM
  IC50: < 31.6 nM
Second compound 0.316 µM
  IC50: < 31.6 nM
Second compound 1 µM
  IC50: < 31.6 nM
Second compound 3.16 µM
  IC50: < 31.6 nM
Second compound 10 µM
  IC50: < 31.6 nM
[1]
  viability, T/C: 38.5%
[2]
  viability, T/C: 15.2%
[3]
  viability, T/C: 14.2%
[4]
  viability, T/C: 14.7%
[5]
  viability, T/C: 14.9%
[6]
  viability, T/C: 10.1%
[7]
  viability, T/C: 43.5%
[8]
  viability, T/C: 15.1%
[9]
  viability, T/C: 13.7%
[10]
  viability, T/C: 15.4%
[11]
  viability, T/C: 15.8%
[12]
  viability, T/C: 11%
[13]
  viability, T/C: 31.8%
[14]
  viability, T/C: 22%
[15]
  viability, T/C: 14.1%
[16]
  viability, T/C: 16.9%
[17]
  viability, T/C: 12.4%
[18]
  viability, T/C: 10.8%
[19]
  viability, T/C: 30.9%
[20]
  viability, T/C: 18.4%
[21]
  viability, T/C: 14.3%
[22]
  viability, T/C: 15.4%
[23]
  viability, T/C: 19.6%
[24]
  viability, T/C: 12%
[25]
  viability, T/C: 35.2%
[26]
  viability, T/C: 14.9%
[27]
  viability, T/C: 14.6%
[28]
  viability, T/C: 13.5%
[29]
  viability, T/C: 13.3%
[30]
  viability, T/C: 13%
[31]
  viability, T/C: 39.8%
[32]
  viability, T/C: 17.3%
[33]
  viability, T/C: 15.3%
[34]
  viability, T/C: 13.7%
[35]
  viability, T/C: 13.3%
[36]
  viability, T/C: 12.2%
